The nature of assay [1]: Antioxidant activity assessed as DPPH radical scavenging activity at 100 uM after 240 mins by UV spectrophotometer relative to control. Format: functional. (In general: DPPH is a stable violet radical that fades when it is reduced.)
For assay [2], the target named is Aldo-keto reductase family 1 member B1 (Rattus norvegicus, UniProt P07943). Description: Inhibition of rat lens ALR2 using D,L-glyceraldehyde as substrate assessed as decrease in NADPH oxidation preincubated for 10 mins followed by substrate addition measured for 4 mins by spectrophotometer.
A short description of assay [3]: Antioxidant activity assessed as DPPH radical scavenging activity at 50 uM after 240 mins by UV spectrophotometer relative to control. It counts as functional.
Assay [4] can be described thus: Antioxidant activity assessed as DPPH radical scavenging activity at 10 uM after 240 mins by UV spectrophotometer relative to control. It counts as functional.

By IC50 is commonly meant the concentration that inhibits the measured activity by half. For `COc1ccc2nc(CCc3ccc(O)cc3)c(=O)n(CC(=O)O)c2c1`, in assay [1], the Activity came to 20.7%. Besides, the IC50 in assay [2] was 508 nM.
For `COc1ccc2nc(-c3c(O)cc(O)cc3O)c(=O)n(CC(=O)O)c2c1`, the Activity was 69.3% in assay [3], 80.6% in assay [1] and 40.6% in assay [4]. Also, the IC50 in assay [2] worked out at 116 nM.
Consider `COc1ccc2nc(-c3ccc(O)cc3O)c(=O)n(CC(=O)O)c2c1`, for which the Activity in assay [1] amounted to 37.2%. Also, in assay [2], the 50% inhibitory concentration (IC50) is 179 nM.
Turning to `COc1ccc2nc(/C=C/c3ccc(O)c(OC)c3)c(=O)n(CC(=O)O)c2c1`, the Activity was 65.9% in assay [3], 83.5% in assay [1] and 42.2% in assay [4]. Also, the IC50 in assay [2] was 210 nM.
Consider `COc1ccc2nc(-c3cc(O)ccc3O)c(=O)n(CC(=O)O)c2c1`, for which the Activity in assay [1] stood at 25.4%. In addition, in assay [2], the IC50 is 865 nM.
The matching figures for `COc1ccc2c(c1)nc(CCc1ccc(O)c(OC)c1)c(=O)n2CC(=O)O`: 31.9% and 983 nM.
Turning to `Cc1c(C)c2c(c(C)c1O)CCC(C)(C(=O)O)O2` (stereo not given), the Activity in assay [3] is 92.7%; in assay [1], 96.5%; in assay [4], 89.3%.
For `COc1ccc2nc(-c3ccc(O)cc3)c(=O)n(CC(=O)O)c2c1`, the Activity in assay [1] came to 12.3%. In assay [2], the 50% inhibitory concentration (IC50) came to 2080 nM.
With `O=C(O)Cn1c(=O)c(/C=C/c2ccc(O)c(O)c2)nc2ccc(O)cc21`, the Activity in assay [3] stood at 82.1%; in assay [1], 96.2%; in assay [4] it was 70.5%. In assay [2], the IC50 was found to be 102 nM.
On to `COc1ccc2nc(-c3ccccc3)c(=O)n(CC(=O)O)c2c1`, for which the IC50 in assay [2] was found to be 5310 nM.
`O=C(O)Cn1c(=O)c(-c2ccccc2)nc2ccc(O)cc21`: the Activity in assay [1] was 19.1%. Also, the IC50 in assay [2] worked out at 3950 nM.
Take `COc1ccc2nc(/C=C/c3ccccc3)c(=O)n(CC(=O)O)c2c1`: the IC50 in assay [2] is 924 nM.
Consider `COc1ccc2nc(/C=C/c3ccc(O)cc3)c(=O)n(CC(=O)O)c2c1`, for which the Activity in assay [3] is 34.3%; in assay [1], 59.2%. Also, the IC50 in assay [2] stood at 59 nM.
As for `O=C(O)Cn1c(=O)c(-c2ccccc2)nc2cc(O)ccc21`, the Activity in assay [1] was 15.8%. Also, the IC50 in assay [2] is 4290 nM.
With `COc1ccc2c(c1)nc(-c1c(O)cc(O)cc1O)c(=O)n2CC(=O)O`, the Activity in assay [3] was determined as 53.7%; in assay [1], 68.7%; in assay [4], 36.4%. Besides, in assay [2], the IC50 is 273 nM.
As for `COc1ccc2c(c1)nc(/C=C/c1ccc(O)c(OC)c1)c(=O)n2CC(=O)O`, the values for the Activity in assay [3], in assay [1] and in assay [4] were 61.4%, 74.9% and 39.7%, respectively. In assay [2], the IC50 is 185 nM.
For the compound `COc1ccc2nc(CCc3ccc(O)c(OC)c3)c(=O)n(CC(=O)O)c2c1`, the Activity in assay [1] was determined as 28.3%. The IC50 in assay [2] stood at 847 nM.
Consider `O=C(O)Cn1c(=O)c(/C=C/c2ccc(O)c(O)c2)nc2cc(O)ccc21`, for which the Activity was 77.8% in assay [3], 90.4% in assay [1] and 64.2% in assay [4]. In assay [2], the IC50 was determined as 159 nM.
As for `COc1ccc2c(c1)nc(/C=C/c1ccc(O)cc1)c(=O)n2CC(=O)O`, the Activity in assay [3] stood at 27.6%; in assay [1], 51.8%. The IC50 in assay [2] was 98 nM.
`COc1ccc2c(c1)nc(-c1ccccc1)c(=O)n2CC(=O)O`: the IC50 in assay [2] stood at 6820 nM.
For the compound `COc1ccc2nc(CCc3ccccc3)c(=O)n(CC(=O)O)c2c1`, the half-maximal inhibitory concentration (IC50) in assay [2] came to 1300 nM.
In the case of `COc1ccc2nc(-c3cccc(O)c3)c(=O)n(CC(=O)O)c2c1`, the Activity in assay [1] is 8.5%. Moreover, the IC50 in assay [2] is 3410 nM.
